{
  "source": "ChEMBL document CHEMBL2176951",
  "about": "“Molecular mechanisms of acquired proteasome inhibitor resistance” (J Med Chem, 2012)",
  "key": {"THP-1 [1]": {"system": "THP-1", "assay": "Effect on PSMB5 mRNA expression in human THP1 cells at 100 nM relative to control", "type": "functional"}, "HT-29 [2]": {"system": "HT-29", "assay": "Effect on 20S proteasome subunit beta5 expression in human HT-29 cells at 200 nM relative to control", "type": "functional"}, "[3]": {"assay": "Effect on PSMB5 mRNA expression in human Jurkat-B cells expressing PSMB5 C323T mutant at 1000 nM relative to control", "type": "functional"}, "THP-1 [4]": {"system": "THP-1", "assay": "Effect on 20S proteasome subunit beta5 expression in human THP1 cells at 30 nM relative to control", "type": "functional"}, "RPMI-8226 [5]": {"system": "RPMI-8226", "assay": "Effect on PSMB5 mRNA expression in human RPMI8226 cells at 7 nM relative to control", "type": "functional"}, "THP-1 [6]": {"system": "THP-1", "assay": "Effect on PSMB5 mRNA expression in human THP1 cells at 30 nM relative to control", "type": "functional"}, "THP-1 [7]": {"system": "THP-1", "assay": "Effect on 20S proteasome subunit beta5 expression in human THP1 cells at 100 nM relative to control", "type": "functional"}, "THP-1 [8]": {"system": "THP-1", "assay": "Effect on PSMB5 mRNA expression in human THP1 cells at 200 nM relative to control", "type": "functional"}, "SW1573": {"system": "SW1573", "assay": "Effect on 20S proteasome subunit beta5 expression in human SW1573 cells at 150 nM relative to control", "type": "functional", "details": "pooled result: one value given for 7 cell lines, strains, targets or settings"}, "THP-1 [9]": {"system": "THP-1", "assay": "Effect on 20S proteasome subunit beta5 expression in human THP1 cells at 200 nM relative to control", "type": "functional"}, "THP-1 [10]": {"system": "THP-1", "assay": "Effect on 20S proteasome subunit beta5 expression in human THP1 cells at 50 nM relative to control", "type": "functional"}, "THP-1 [11]": {"system": "THP-1", "assay": "Effect on PSMB5 mRNA expression in human THP1 cells at 50 nM relative to control", "type": "functional"}, "RPMI-8226 [12]": {"system": "RPMI-8226", "assay": "Effect on PSMB5 mRNA expression in human RPMI8226 cells at 100 nM relative to control", "type": "functional"}, "[13]": {"assay": "Effect on PSMB5 mRNA expression in human Jurkat-B cells expressing PSMB5 G322A mutant at 1000 nM relative to control", "type": "functional"}, "HT-29 [14]": {"system": "HT-29", "assay": "Effect on 20S proteasome subunit beta5 expression in human HT-29 cells at 100 nM relative to control", "type": "functional"}, "[15]": {"target": "T1, Proteasome Macropain subunit MB1 (Homo sapiens) (UniProt P28074)", "T1 sequence (whole entry)": "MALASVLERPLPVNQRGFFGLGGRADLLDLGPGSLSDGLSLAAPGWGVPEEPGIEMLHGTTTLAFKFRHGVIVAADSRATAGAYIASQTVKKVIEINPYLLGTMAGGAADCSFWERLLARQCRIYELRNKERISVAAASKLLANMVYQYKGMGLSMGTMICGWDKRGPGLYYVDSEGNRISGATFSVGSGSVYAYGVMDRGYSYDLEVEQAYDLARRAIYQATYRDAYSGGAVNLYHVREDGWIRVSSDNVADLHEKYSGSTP", "assay": "Ratio of Kinact to Ki for human 20S proteasome subunit beta5"}, "Homo sapiens": {"organism": "Homo sapiens", "assay": "P-gp-mediated drug resistance in human CEM/VLB cells relative to control", "type": "cell-based"}, "[16]": {"target": "T2, Proteasome component C5 (Homo sapiens) (UniProt P20618)", "T2 sequence (whole entry)": "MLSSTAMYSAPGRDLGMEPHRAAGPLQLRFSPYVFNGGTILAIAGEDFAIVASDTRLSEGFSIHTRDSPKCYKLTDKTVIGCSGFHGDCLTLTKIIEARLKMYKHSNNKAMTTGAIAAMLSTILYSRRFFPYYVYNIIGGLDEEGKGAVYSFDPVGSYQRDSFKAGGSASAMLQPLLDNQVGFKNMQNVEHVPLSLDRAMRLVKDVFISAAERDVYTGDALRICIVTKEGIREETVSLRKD", "assay": "Ratio of Kinact to Ki for human 20S proteasome subunit beta1"}, "[17]": {"target": "Proteasome Macropain subunit (Homo sapiens) (UniProt P49721)", "sequence (P49721 whole entry)": "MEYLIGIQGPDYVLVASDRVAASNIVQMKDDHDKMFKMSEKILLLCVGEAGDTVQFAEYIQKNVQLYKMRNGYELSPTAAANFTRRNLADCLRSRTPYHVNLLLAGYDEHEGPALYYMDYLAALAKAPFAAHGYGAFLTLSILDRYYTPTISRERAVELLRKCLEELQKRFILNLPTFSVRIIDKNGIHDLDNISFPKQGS", "assay": "Ratio of Kinact to Ki for human 20S proteasome subunit beta2"}, "RPMI-8226 [18]": {"system": "RPMI-8226", "assay": "Resistance factor, ratio of IC50 for 100 nM bortezonib-resistant human RPMI8226 cells harboring proteosome subunit beta5 A49T mutant to IC50 for wild type human RPMI8226 cells", "type": "functional"}, "[19]": {"target": "T3, Proteasome Macropain subunit MB1 (Homo sapiens, UniProt P28074)", "T3 sequence (P28074 whole entry)": "T1 sequence (whole entry)", "assay": "Reversible inhibition of human erythrocyte derived 20S proteasome subunit beta5 after 30 mins by fluorogenic assay"}},
  "data": [
    {"smiles": "CC(C)C[C@H](NC(=O)[C@H](Cc1ccccc1)NC(=O)c1cnccn1)B(O)O", "note": "[BORTEZOMIB]", "values": [
      {"measurement": "fold change (FC)", "setting": "THP-1 [1]", "result": 0.6},
      {"measurement": "fold change (FC)", "setting": "HT-29 [2]", "result": 3},
      {"measurement": "fold change (FC)", "setting": "[3]", "result": 0.9},
      {"measurement": "fold change (FC)", "setting": "THP-1 [4]", "result": 60},
      {"measurement": "fold change (FC)", "setting": "RPMI-8226 [5]", "result": 5},
      {"measurement": "fold change (FC)", "setting": "THP-1 [6]", "result": 0.4},
      {"measurement": "fold change (FC)", "setting": "THP-1 [7]", "result": 60},
      {"measurement": "fold change (FC)", "setting": "THP-1 [8]", "result": 0.9},
      {"measurement": "fold change (FC)", "setting": "SW1573", "result": 1.3},
      {"measurement": "fold change (FC)", "setting": "THP-1 [9]", "result": 60},
      {"measurement": "fold change (FC)", "setting": "THP-1 [10]", "result": 60},
      {"measurement": "fold change (FC)", "setting": "THP-1 [11]", "result": 0.5},
      {"measurement": "fold change (FC)", "setting": "RPMI-8226 [12]", "result": 15},
      {"measurement": "fold change (FC)", "setting": "[13]", "result": 1.7},
      {"measurement": "fold change (FC)", "setting": "HT-29 [14]", "result": 3}
    ]},
    {"smiles": "CC(C)C[C@H](NC(=O)[C@H](CCc1ccccc1)NC(=O)CN1CCOCC1)C(=O)N[C@@H](Cc1ccccc1)C(=O)N[C@@H](CC(C)C)C(=O)[C@@]1(C)CO1", "note": "[CARFILZOMIB]", "values": [
      {"measurement": "Ratio", "setting": "[15]", "result": 33000, "unit": "M⁻¹ s⁻¹"},
      {"measurement": "fold change (FC)", "setting": "Homo sapiens", "result": 114},
      {"measurement": "Ratio", "setting": "[16]", "result": "< 100", "unit": "M⁻¹ s⁻¹"},
      {"measurement": "Ratio", "setting": "[17]", "result": "< 100", "unit": "M⁻¹ s⁻¹"},
      {"measurement": "Ratio IC50", "setting": "RPMI-8226 [18]", "result": 9.7}
    ]},
    {"smiles": "COC[C@H](NC(=O)c1cnc(C)s1)C(=O)N[C@@H](COC)C(=O)N[C@@H](Cc1ccccc1)C(=O)[C@@]1(C)CO1", "values": [
      {"measurement": "fold change (FC)", "setting": "Homo sapiens", "result": 23}
    ]},
    {"smiles": "CC(C)C[C@H](NC(=O)[C@@H](NC(=O)c1cccc(-c2ccccc2)n1)[C@@H](C)O)B(O)O", "note": "[DELANZOMIB]", "values": [
      {"measurement": "IC50", "setting": "[19]", "result": 3.5, "unit": "nM"}
    ]}
  ]
}
